Assay results published in PubChem BioAssay AID328 (DTP/NCI, 2004).
Values joined by “and” are separate entries in the source; they are usually repeats but may differ in a detail not shown here. Equal entries are not always repeated. Inconclusive results and toxic doses are left out. How the source made its calls: active means survival T/C of 150% or more; inactive means T/C below 125% in these data.

System: BDF1 mice, P388 leukemia ip, median survival T/C
Experiment: NCI In Vivo Anticancer Drug Screen. Data for tumor model P388 Leukemia (intraperitoneal) in B6D2F1 (BDF1) mice
Conditions: endpoint: median survival time, higher = longer survival
Summary of the method: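 Compound-treated tumour-bearing mice were compared with vehicle-treated controls. Survival was recorded, and the value is the treated-group measurement divided by the control-group measurement (T/C).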

[1] = dose: 12.5 mg/kg/injection, schedule: Q01DX009 (ip), vehicle: saline with Tween-80
[2] = dose: 200.0 mg/kg/injection, schedule: Q04DX003 (ip), vehicle: saline
[3] = dose: 50.0 mg/kg/injection, schedule: Q01DX009 (ip), vehicle: saline with Tween-80
[4] = dose: 100.0 mg/kg/injection, schedule: Q01DX009 (ip), vehicle: saline with Tween-80
[5] = dose: 100.0 mg/kg/injection, schedule: Q04DX003 (ip), vehicle: saline with Tween-80
[6] = dose: 25.0 mg/kg/injection, schedule: Q01DX009 (ip), vehicle: saline with Tween-80
[7] = dose: 200.0 mg/kg/injection, schedule: Q04DX003 (ip), vehicle: saline with Tween-80
[8] = dose: 400.0 mg/kg/injection, schedule: Q04DX003 (ip), vehicle: saline with Tween-80

Measured: T/C

c1ccc(C/C(N=Nc2ccccc2)=N\Nc2ccccc2)cc1
inactive: dose: 50.0 mg/kg/injection, schedule: Q01DX009 (ip), vehicle: Klucel (hydroxypropylcellulose) (HPC) 110 % of control | dose: 100.0 mg/kg/injection, schedule: Q01DX009 (ip), vehicle: Klucel (hydroxypropylcellulose) (HPC) 110 % of control | dose: 200.0 mg/kg/injection, schedule: Q01DX009 (ip), vehicle: Klucel (hydroxypropylcellulose) (HPC) 100 % of control

NC(=O)NN=C1CSSC1
inactive: dose: 0.78 mg/kg/injection, schedule: Q01DX009 (ip), vehicle: saline with Tween-80 103 % of control | dose: 0.78 mg/kg/injection, schedule: Q04DX003 (ip), vehicle: saline with Tween-80 104 % of control | dose: 1.56 mg/kg/injection, schedule: Q01DX009 (ip), vehicle: saline with Tween-80 94 % of control | dose: 1.56 mg/kg/injection, schedule: Q04DX003 (ip), vehicle: saline with Tween-80 91 % of control | dose: 3.12 mg/kg/injection, schedule: Q01DX009 (ip), vehicle: saline with Tween-80 92 % of control | dose: 3.12 mg/kg/injection, schedule: Q04DX003 (ip), vehicle: saline with Tween-80 113 % of control | dose: 6.25 mg/kg/injection, schedule: Q01DX009 (ip), vehicle: saline with Tween-80 92 % of control | dose: 6.25 mg/kg/injection, schedule: Q04DX003 (ip), vehicle: saline with Tween-80 100 % of control | [1] 94 % of control | dose: 12.5 mg/kg/injection, schedule: Q04DX003 (ip), vehicle: saline with Tween-80 95 % of control

O=[N+]([O-])c1ccccn1
inactive: dose: 6.25 mg/kg/injection, schedule: Q04DX003 (ip), vehicle: saline 100 % of control | dose: 12.5 mg/kg/injection, schedule: Q04DX003 (ip), vehicle: saline 100 % of control | dose: 25.0 mg/kg/injection, schedule: Q04DX003 (ip), vehicle: saline 104 % of control

COc1ccc(C(=O)N/N=C(\C)[C@]2(O)Cc3c(O)c4c(c(O)c3[C@@H](OC3CC(N)C(O)C(C)O3)C2)C(=O)c2c(OC)cccc2C4=O)cc1 (some centres undefined)
244 % of control and 107 % of control: dose: 4.0 mg/kg/injection, schedule: Q01DX009 (ip), vehicle: water
inactive: dose: 0.25 mg/kg/injection, schedule: Q01DX009 (ip), vehicle: water 117 % of control and 123 % of control | dose: 8.0 mg/kg/injection, schedule: Q01DX009 (ip), vehicle: water 107 % of control
active: dose: 1.0 mg/kg/injection, schedule: Q01DX009 (ip), vehicle: water 156 % of control and 212 % of control | dose: 2.0 mg/kg/injection, schedule: Q01DX009 (ip), vehicle: water 275 % of control and 156 % of control

COC(=O)C1CCCCC1NC(C)=O (centres undefined)
inactive: dose: 100.0 mg/kg/injection, schedule: Q04DX003 (ip), vehicle: saline 95 % of control | [2] 100 % of control | dose: 400.0 mg/kg/injection, schedule: Q04DX003 (ip), vehicle: saline 91 % of control

O=[N+]([O-])c1ccc(N2CCCC(n3cccc3)C2)c([N+](=O)[O-])c1 (centres undefined)
inactive: [3] 109 % of control | [4] 115 % of control

CCN(C(C)C)C(C)C
inactive: dose: 25.0 mg/kg/injection, schedule: Q04DX003 (ip), vehicle: saline with Tween-80 100 % of control | dose: 50.0 mg/kg/injection, schedule: Q04DX003 (ip), vehicle: saline with Tween-80 100 % of control | [5] 100 % of control

Cc1csc(NC(=O)Nc2ccc(F)cc2[N+](=O)[O-])n1
inactive: [1] 110 % of control | [6] 88 % of control | [3] 120 % of control

C#CCOCC1CN(C)C(=O)O1 (centres undefined)
inactive: dose: 25.0 mg/kg/injection, schedule: Q01DX009 (ip), vehicle: saline 104 % of control | dose: 50.0 mg/kg/injection, schedule: Q01DX009 (ip), vehicle: saline 100 % of control | dose: 50.0 mg/kg/injection, schedule: Q04DX003 (ip), vehicle: saline 91 % of control | dose: 100.0 mg/kg/injection, schedule: Q01DX009 (ip), vehicle: saline 100 % of control | dose: 200.0 mg/kg/injection, schedule: Q01DX009 (ip), vehicle: saline 100 % of control | [2] 100 % of control

COC(CNC(=O)Nc1cccnc1)[CH2][Hg][Cl] (centres undefined)
inactive: [1] 90 % of control | [6] 104 % of control | [3] 100 % of control

CCNC(C)(C)C(SSS)c1cccs1 (centres undefined)
inactive: [4] 112 % of control | [5] 100 % of control | dose: 200.0 mg/kg/injection, schedule: Q01DX009 (ip), vehicle: saline with Tween-80 120 % of control | [7] 122 % of control | [8] 118 % of control

O=C(Nc1ccc(F)cc1)c1ccc(C(=O)Nc2ccc(F)cc2)cc1
inactive: [5] 108 % of control | [7] 91 % of control | [8] 91 % of control
